# Experimental data reported in patent US20070128217A1 (priority 2003, published 2007).
# Legend:
# [1] = tested on: antibodies in sera from SARS patients (sera 1a, 1b, 2, 6, 37, 62, London, SARS-yellow, SARS-green); type: binding, human; set-up: Binding of serum 6 to linear peptides of protein X1 of SARS-CoV Urbani / Binding of serum 37 to linear peptides of protein X1 of SARS-CoV Urbani / Binding of serum 6 to looped/cyclic peptide (PEPSCAN-ELISA) / Binding of serum 37 to looped/cyclic peptide (PEPSCAN-ELISA) / Binding of serum 37 to looped/cyclic peptides of protein X1 of SARS-CoV Urbani / Binding of serum 6 to linear peptides of protein X2 / Binding of serum 37 to linear peptides of protein X2 / Binding of serum 37 to looped/cyclic peptides of protein X2 of SARS-CoV Urbani / Binding of serum 6 to linear peptides of protein M of SARS-CoV Urbani / Binding of serum 37 to linear peptides of protein M of SARS-CoV Urbani / Binding of serum 6 to looped/cyclic peptides of protein M of SARS-CoV Urbani / Binding of serum 37 to looped/cyclic peptides of protein M of SARS-CoV Urbani / Binding of serum 6 to linear peptides of protein X3 of SARS-CoV Urbani / Binding of serum 37 to linear peptides of protein X3 of SARS-CoV Urbani / Binding of serum 37 to looped/cyclic peptides of protein X3 of SARS-CoV Urbani / Binding of serum 6 to linear peptides of protein X4 of SARS-CoV Urbani / Binding of serum 37 to linear peptides of protein X4 of SARS-CoV Urbani / Binding of serum 37 to looped/cyclic peptides of protein X4 of SARS-CoV Urbani / Binding of serum 6 to linear peptides of protein X5 of SARS-CoV Urbani / Binding of serum 37 to linear peptides of protein X5 of SARS-CoV Urbani / Binding of serum 37 to looped/cyclic peptides of protein X5 of SARS-CoV Urbani / Binding of serum 6 to linear peptides of protein N of SARS-CoV Urbani / Binding of serum 37 to linear peptides of protein N of SARS-CoV Urbani / Binding of serum 6 to linear peptide (PEPSCAN-ELISA) / Binding of serum 1a to looped/cyclic peptides of protein N of SARS-CoV Urbani / Binding of serum 1b to looped/cyclic peptides of protein N of SARS-CoV Urbani / Binding of serum 2 to looped/cyclic peptides of protein N of SARS-CoV Urbani / Binding of serum 6 to looped/cyclic peptides of protein N of SARS-CoV Urbani / Binding of serum 37 to looped/cyclic peptides of protein N of SARS-CoV Urbani / Binding of serum 62 to looped/cyclic peptides of protein N of SARS-CoV Urbani / Binding of serum London to looped/cyclic peptides of protein N of SARS-CoV Urbani / Binding of serum SARS-green to looped/cyclic peptides of protein N of SARS-CoV Urbani: unit not given here
# [2] = tested on: rabbit serum obtained by immunizing a rabbit with the SARS-CoV strain Frankfurt 1; type: binding; set-up: Binding of a rabbit serum to linear peptides / Binding of a rabbit serum to looped peptides / Rabbit serum linear peptides / Rabbit serum looped peptides / Binding of a rabbit serum to linear peptides of protein N of SARS-CoV Urbani (Rabbit serum linear peptides) / Binding of a rabbit serum to looped/cyclic peptides of protein N of SARS-CoV Urbani (Rabbit serum looped peptides): unit not given here
sequence,measurement,setting,value
FICNLLLLFVTIYSH,Binding of serum 1a to linear peptides of protein X1 of SARS-CoV Urbani,[1],0.6
same,Binding of serum 1a to looped/cyclic peptide (PEPSCAN-ELISA),[1],0.5
same,Binding of serum 1b to linear peptides of protein X1 of SARS-CoV Urbani,[1],0.6
same,Binding of serum 1b to looped/cyclic peptide (PEPSCAN-ELISA),[1],0.3
same,Binding of serum 2 to linear peptides of protein X1 of SARS-CoV Urbani,[1],0.6
same,Binding of serum 2 to looped/cyclic peptide (PEPSCAN-ELISA),[1],0.4
same,Binding of serum 6 to linear peptides of protein X1 of SARS-CoV Urbani,[1],0.4
same,Binding of serum 6 to looped/cyclic peptide (PEPSCAN-ELISA),[1],0.2
same,Binding of serum 37 to linear peptides of protein X1 of SARS-CoV Urbani,[1],0.5
same,Binding of serum 37 to looped/cyclic peptide (PEPSCAN-ELISA),[1],0.5
same,Binding of serum 62 to linear peptides of protein X1 of SARS-CoV Urbani,[1],0.5
same,Binding of serum 62 to looped/cyclic peptide (PEPSCAN-ELISA),[1],0.5
same,Binding of serum London to linear peptides of protein X1 of SARS-CoV Urbani,[1],0.3
same,Binding of serum London to looped/cyclic peptide (PEPSCAN-ELISA),[1],0.2
same,Binding of serum SARS-green to linear peptides of protein X1 of SARS-CoV Urbani,[1],0.2
same,Binding of serum SARS-green to looped/cyclic peptide (PEPSCAN-ELISA),[1],0.3
same,Binding of serum SARS-yellow to linear peptides of protein X1 of SARS-CoV Urbani,[1],0.4
same,Binding of serum SARS-yellow to looped/cyclic peptide (PEPSCAN-ELISA),[1],0.5
same,Binding of a rabbit serum to linear peptides,[2],0.1
same,Binding of a rabbit serum to looped peptides,[2],0.5
HRWHTMVQTCTPNVT,Binding of serum 1a to linear peptides of protein X5 of SARS-CoV Urbani,[1],0.7
same,Binding of serum 1a to looped/cyclic peptides of protein X5 of SARS-CoV Urbani,[1],0.6
same,Binding of serum 1b to linear peptides of protein X5 of SARS-CoV Urbani,[1],0.6
same,Binding of serum 1b to looped/cyclic peptides of protein X5 of SARS-CoV Urbani,[1],0.5
same,Binding of serum 2 to linear peptides of protein X5 of SARS-CoV Urbani,[1],0.8
same,Binding of serum 2 to looped/cyclic peptides of protein X5 of SARS-CoV Urbani,[1],0.5
same,Binding of serum 6 to linear peptides of protein X5 of SARS-CoV Urbani,[1],0.5
same,Binding of serum 6 to looped/cyclic peptides of protein X5 of SARS-CoV Urbani,[1],0.3
same,Binding of serum 37 to linear peptides of protein X5 of SARS-CoV Urbani,[1],0.7
same,Binding of serum 37 to looped/cyclic peptides of protein X5 of SARS-CoV Urbani,[1],0.3
same,Binding of serum 62 to linear peptides of protein X5 of SARS-CoV Urbani,[1],0.8
same,Binding of serum 62 to looped/cyclic peptides of protein X5 of SARS-CoV Urbani,[1],0.3
same,Binding of serum London to linear peptides of protein X5 of SARS-CoV Urbani,[1],0.7
same,Binding of serum London to looped/cyclic peptides of protein X5 of SARS-CoV Urbani,[1],0.1
same,Binding of serum SARS-green to linear peptides of protein X5 of SARS-CoV Urbani,[1],0.5
same,Binding of serum SARS-green to looped/cyclic peptides of protein X5 of SARS-CoV Urbani,[1],0.3
same,Binding of serum SARS-yellow to linear peptides of protein X5 of SARS-CoV Urbani,[1],0.5
same,Binding of serum SARS-yellow to looped/cyclic peptides of protein X5 of SARS-CoV Urbani,[1],0.2
same,Rabbit serum linear peptides,[2],0.7
same,Rabbit serum looped peptides,[2],0.3
IGVAFLAVFQSATKI,Binding of serum 1a to linear peptides of protein X1 of SARS-CoV Urbani,[1],0.6
same,Binding of serum 1a to looped/cyclic peptide (PEPSCAN-ELISA),[1],0.5
same,Binding of serum 1b to linear peptides of protein X1 of SARS-CoV Urbani,[1],0.5
same,Binding of serum 1b to looped/cyclic peptide (PEPSCAN-ELISA),[1],0.4
same,Binding of serum 2 to linear peptides of protein X1 of SARS-CoV Urbani,[1],0.6
same,Binding of serum 2 to looped/cyclic peptide (PEPSCAN-ELISA),[1],0.4
same,Binding of serum 6 to linear peptides of protein X1 of SARS-CoV Urbani,[1],0.5
same,Binding of serum 6 to looped/cyclic peptide (PEPSCAN-ELISA),[1],0.3
same,Binding of serum 37 to linear peptides of protein X1 of SARS-CoV Urbani,[1],0.6
same,Binding of serum 37 to looped/cyclic peptide (PEPSCAN-ELISA),[1],0.5
same,Binding of serum 62 to linear peptides of protein X1 of SARS-CoV Urbani,[1],0.6
same,Binding of serum 62 to looped/cyclic peptide (PEPSCAN-ELISA),[1],0.6
same,Binding of serum London to linear peptides of protein X1 of SARS-CoV Urbani,[1],0.2
same,Binding of serum London to looped/cyclic peptide (PEPSCAN-ELISA),[1],0.2
same,Binding of serum SARS-green to linear peptides of protein X1 of SARS-CoV Urbani,[1],0.2
same,Binding of serum SARS-green to looped/cyclic peptide (PEPSCAN-ELISA),[1],0.2
same,Binding of serum SARS-yellow to linear peptides of protein X1 of SARS-CoV Urbani,[1],0.3
same,Binding of serum SARS-yellow to looped/cyclic peptide (PEPSCAN-ELISA),[1],0.3
same,Binding of a rabbit serum to linear peptides,[2],0.1
same,Binding of a rabbit serum to looped peptides,[2],0.6
IIALNKRWQLALYKG,Binding of serum 1a to linear peptides of protein X1 of SARS-CoV Urbani,[1],0.7
same,Binding of serum 1a to looped/cyclic peptide (PEPSCAN-ELISA),[1],0.6
same,Binding of serum 1b to linear peptides of protein X1 of SARS-CoV Urbani,[1],0.4
same,Binding of serum 1b to looped/cyclic peptide (PEPSCAN-ELISA),[1],0.4
same,Binding of serum 2 to linear peptides of protein X1 of SARS-CoV Urbani,[1],0.5
same,Binding of serum 2 to looped/cyclic peptide (PEPSCAN-ELISA),[1],0.5
same,Binding of serum 6 to linear peptides of protein X1 of SARS-CoV Urbani,[1],0.7
same,Binding of serum 6 to looped/cyclic peptide (PEPSCAN-ELISA),[1],0.6
same,Binding of serum 37 to linear peptides of protein X1 of SARS-CoV Urbani,[1],0.6
same,Binding of serum 37 to looped/cyclic peptide (PEPSCAN-ELISA),[1],0.6
same,Binding of serum 62 to linear peptides of protein X1 of SARS-CoV Urbani,[1],0.5
same,Binding of serum 62 to looped/cyclic peptide (PEPSCAN-ELISA),[1],0.6
same,Binding of serum London to linear peptides of protein X1 of SARS-CoV Urbani,[1],0.3
same,Binding of serum London to looped/cyclic peptide (PEPSCAN-ELISA),[1],0.4
same,Binding of serum SARS-green to linear peptides of protein X1 of SARS-CoV Urbani,[1],0.3
same,Binding of serum SARS-green to looped/cyclic peptide (PEPSCAN-ELISA),[1],0.2
same,Binding of serum SARS-yellow to linear peptides of protein X1 of SARS-CoV Urbani,[1],0.5
same,Binding of serum SARS-yellow to looped/cyclic peptide (PEPSCAN-ELISA),[1],0.5
same,Recognition of the peptide by the rabbit serum,[2],recognized
IRGHLRMAGHPLGRC,Rabbit serum linear peptides,[2],1.2
same,Rabbit serum looped peptides,[2],0.4
ITVEELKQLLEQWNL,Recognition of the peptide by the rabbit serum,[2],recognized
KQLLEQWNLVIGFLP,Rabbit serum linear peptides,[2],0.0
same,Rabbit serum looped peptides,[2],0.1
LACFVLAAVYRINWV,Binding of serum 1a to linear peptides of protein M of SARS-CoV Urbani,[1],0.7
same,Binding of serum 1a to looped/cyclic peptides of protein M of SARS-CoV Urbani,[1],0.7
same,Binding of serum 1b to linear peptides of protein M of SARS-CoV Urbani,[1],0.7
same,Binding of serum 1b to looped/cyclic peptides of protein M of SARS-CoV Urbani,[1],0.5
same,Binding of serum 2 to linear peptides of protein M of SARS-CoV Urbani,[1],0.6
same,Binding of serum 2 to looped/cyclic peptides of protein M of SARS-CoV Urbani,[1],0.9
same,Binding of serum 6 to linear peptides of protein M of SARS-CoV Urbani,[1],0.4
same,Binding of serum 6 to looped/cyclic peptides of protein M of SARS-CoV Urbani,[1],0.7
same,Binding of serum 37 to linear peptides of protein M of SARS-CoV Urbani,[1],0.5
same,Binding of serum 37 to looped/cyclic peptides of protein M of SARS-CoV Urbani,[1],0.6
same,Binding of serum 62 to linear peptides of protein M of SARS-CoV Urbani,[1],0.5
same,Binding of serum 62 to looped/cyclic peptides of protein M of SARS-CoV Urbani,[1],0.7
same,Binding of serum London to linear peptides of protein M of SARS-CoV Urbani,[1],0.4
same,Binding of serum London to looped/cyclic peptides of protein M of SARS-CoV Urbani,[1],0.3
same,Binding of serum SARS-green to linear peptides of protein M of SARS-CoV Urbani,[1],0.6
same,Binding of serum SARS-green to looped/cyclic peptides of protein M of SARS-CoV Urbani,[1],0.3
same,Binding of serum SARS-yellow to linear peptides of protein M of SARS-CoV Urbani,[1],0.3
same,Binding of serum SARS-yellow to looped/cyclic peptides of protein M of SARS-CoV Urbani,[1],0.4
same,Rabbit serum linear peptides,[2],0.3
same,Rabbit serum looped peptides,[2],0.2
LHEGHQTAAFRDVLV,Rabbit serum linear peptides,[2],0.5
same,Rabbit serum looped peptides,[2],0.7
RCWYLHEGHQTAAFR,Rabbit serum linear peptides,[2],0.9
same,Rabbit serum looped peptides,[2],0.4
RGHLRMAGHPLGRCD,Rabbit serum linear peptides,[2],0.0
same,Rabbit serum looped peptides,[2],0.3
SPFHPLADNKFALTC,Rabbit serum linear peptides,[2],0.4
same,Rabbit serum looped peptides,[2],0.5
TLGSITAQPVKIDNA,Binding of a rabbit serum to linear peptides,[2],0.8
same,Binding of a rabbit serum to looped peptides,[2],0.4
TVEELKQLLEQWNLV,Recognition of the peptide by the rabbit serum,[2],recognized
TVHATATIPLQASLP,Binding of a rabbit serum to linear peptides,[2],0.4
same,Binding of a rabbit serum to looped peptides,[2],0.5
TYEGNSPFHPLADNK,Rabbit serum linear peptides,[2],0.7
same,Rabbit serum looped peptides,[2],0.4
VHATATIPLQASLPF,Binding of a rabbit serum to linear peptides,[2],0.1
same,Binding of a rabbit serum to looped peptides,[2],0.6
VIGAVIIRGHLRMAG,Rabbit serum linear peptides,[2],1.5
same,Rabbit serum looped peptides,[2],0.6
VIIRGHLRMAGHPLG,Rabbit serum linear peptides,[2],0.4
same,Rabbit serum looped peptides,[2],0.6
VQQELYSPLFLTVAA,Rabbit serum linear peptides,[2],0.5
same,Rabbit serum looped peptides,[2],0.2
WYLHEGHQTAAFRDV,Rabbit serum linear peptides,[2],0.3
same,Rabbit serum looped peptides,[2],0.0
